Measurements taken from US5225411A, “Disubstituted polymethyleneimines” (priority 1990, dated 1993).
Where “and” joins values, the source holds several entries; their conditions need not be identical. Equal entries are not always repeated. Where two headings read alike, the source gives them in different places.

Tests used:
[1] = in vivo; cited from earlier work
line DC-3F/AD = assay: Flow cytometry, increase in fluorescence of ADR on the line DC-3F/AD; type: cell-based, Chinese Hamster; conditions: ADR 50 μM, 5 h
Experimental: (§1) By measuring that fluorescence it is possible to obtain a relative measurement of the intracellular concentration of ADR.
(§2) […] After 5 hours' incubation, the intracellular uptake of adriamycin was evaluated by FCM.
(§3) The analysis of each of the samples was carried out on a total of 10,000 cells at a speed of 1000 cells/sec.
(§4) The results were presented in the form of linear histograms of the intracellular ADR fluorescence.
(§5) Expression of the Results
(§6) For each of the histograms, the channel mean fluorescence was determined by the apparatus information system. For all experiments:
(§7) A negative control (cells without ADR) fixed the autofluorescence threshold.
(§8) A positive control (cells with ADR) determined the MEAN value=MN1.
(§9) The "test" tubes (cells with ADR and with compound) were used to determine, for each of the compounds and at each of the concentrations, the MEAN values=MN2.
(§10) The results are expressed in the form of variations from the mean fluorescence obtained for each of the "test" tubes (MN2) in relation to the mean fluorescence obtained with the […] (MNl) : VAR-MEAN=MN2 -MN1. The parameter expressed is thus the increase in the fluorescence of adriamycin in the presence of the tested compounds.

[2] = test system: Chinese Hamster Pulmonary Line DC-3F/AD; assay: Increase in the cytotoxicity of actinomycin D on the Chinese hamster pulmonary line DC-3F/AD; type: cell-based; conditions: 4 days;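 note: DC-3F/AD is an extremely resistant cell line whose resistance factor exceeds 10,000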
Text: The cytotoxic agent used was actinomycin D.
Line DC-3F/AD is an extremely resistant line. Its resistance factor is higher than 10,000.

line P 388/ADR 10 = assay: Flow cytometry, increase in fluorescence of ADR on the line P 388/ADR 10; type: cell-based, murine; conditions: ADR 50 μM, 5 h
Experimental: as §1, §2, §3, §4, §5, §6, §7, §8, §9, §10

[3] = test system: murine leukaemia P 388/ADR 10; assay: Evaluation of the increase in cytotoxicity of adriamycin on the line P 388/ADR-10 in vitro (reversion factor); type: cell-based; conditions: for Reversion Factor (RF): adriamycin, P 388/ADR-10, 48 h, TOX = toxic
Experimental: In this study, the cytotoxicity of adriamycin was measured in the absence and in the presence of the reversing compound.
The compounds tested for their capacity to reverse MDR are added at the same time as the cytotoxic agent. The cells are then incubated for 48 hours.

[4] = test system: murine leukaemia P388/ADR
Text: D) In Vivo Reversion of the Acquired Resistance to Medicaments
10^6 cells are implanted by the intraperitoneal route into female B6 D2 F1 mice on day 0 and treatment commences the following day in accordance with the administration schemes indicated.
The parameter measured is the survival time, allowing the calculation of T/C: [formula]
The variation in weight is calculaed; it provides information on the toxicity of the treatment. The control groups comprise from 15 to 27 animals and the treated groups from 5 to 10 animals.
Six independent experiments were carried out. The assays were performed over 4 days in accordance with the scheme D1-4 the tumour cells being implanted on DO and the reversing agent and the cytotoxic agnet being administered on D1, D2, D3, and D4.

[5] = test system: murine leukaemia P 388/ADR 10; assay: Evaluation of the increase in cytotoxicity of adriamycin on the line P 388/ADR-10 in vitro (reversion factor); type: cell-based; conditions: P 388/ADR 10, resistance induced by adriamycin
[6] = Example 1 50 mg/kg + ADR 2 mg/kg, i.p., D1-4, n=2
[7] = Example 1 50 mg/kg + ADR 4 mg/kg, i.p., D1-4, n=2
[8] = Example 1 50 mg/kg alone, i.p., D1-4, n=2
[9] = Example 1 100 mg/kg + ADR 2 mg/kg, i.p., D1-4, n=2
[10] = Example 1 100 mg/kg + ADR 4 mg/kg, i.p., D1-4, n=6
[11] = Example 1 100 mg/kg alone, i.p., D1-4, n=6
[12] = Example 1 200 mg/kg + ADR 2 mg/kg, i.p., D1-4, n=4
[13] = Example 1 200 mg/kg alone, i.p., D1-4, n=4
[14] = ADR 2 mg/kg alone, i.p., D1-4, n=2
[15] = ADR 4 mg/kg alone, i.p., D1-4, n=6

What does the source list for `COC(=O)[C@H]1[C@H]2C[C@@H]3c4[nH]c5cc(OC)ccc5c4CCN3C[C@H]2C[C@@H](OC(=O)c2cc(OC)c(OC)c(OC)c2)[C@@H]1OC` [RESERPINE]?
toxicity [1]: high degree of toxicity; Increase in fluorescence of ADR (VAR-MEAN = MN2 - MN1) (line DC-3F/AD; compound 2 μM): 26.18; Increase in fluorescence of ADR (VAR-MEAN = MN2 - MN1) (line DC-3F/AD; compound 5 μM): 29.43; Increase in fluorescence of ADR (VAR-MEAN = MN2 - MN1) (line DC-3F/AD; compound 10 μM): 31.73; Increase in fluorescence of ADR (VAR-MEAN = MN2 - MN1) (line DC-3F/AD; compound 20 μM): 29.95; Reversion Factor (RF) ([2]; compound 2.5 μM): 258; Reversion Factor (RF) ([2]; compound 5 μM): 1085; Reversion Factor (RF) ([2]; compound 10 μM): 1649; Reversion Factor (RF) ([2]; compound 20 μM): 2024; Increase in fluorescence of ADR (VAR-MEAN = MN2 - MN1) (line P 388/ADR 10; compound 2 μM): 73.46; Increase in fluorescence of ADR (VAR-MEAN = MN2 - MN1) (line P 388/ADR 10; compound 5 μM): 80.48; Increase in fluorescence of ADR (VAR-MEAN = MN2 - MN1) (line P 388/ADR 10; compound 10 μM): 91.90; Increase in fluorescence of ADR (VAR-MEAN = MN2 - MN1) (line P 388/ADR 10; compound 20 μM): 85.39; activity in reversing resistance in vitro ([3]; P 388/ADR-10, adriamycin): very good activity in vitro; Reversion Factor (RF) ([3]; compound 5 μM): 215.5; Reversion Factor (RF) ([3]; compound 10 μM): 189

With `C=CCNc1nc(NCC=C)nc(N2CCC(NCC(c3ccc(F)cc3)c3ccc(F)cc3)CC2)n1` [Example 1, 1-[4,6-bis(allylamino)-2-s-triazinyl]-4-[2,2-bis(p-fluorophenyl)ethylamino]piperidine] as the compound, how does the “Increase in fluorescence of ADR (VAR-MEAN = MN2 - MN1)” value (shortened to “Increase in fluorescence of ADR”) (line DC-3F/AD; compound 2 μM) read?
The value was 18.27.

And the “Increase in fluorescence of ADR” value (line DC-3F/AD; compound 5 μM)?
Its value is 26.13.

And the “Increase in fluorescence of ADR” value (line DC-3F/AD; compound 10 μM)?
The value was 35.57.

What about the “Increase in fluorescence of ADR” value (line DC-3F/AD; compound 20 μM) of the same compound?
The value was 43.63.

What about the “T/C, extreme values” [4, 6] of the same compound?
The value was 120-141.7%.

And the “T/C, mean ± s.e.m.” value [4, 6]?
Its value is 130.9%.

And the “T/C, median” value [4, 6]?
Its value is 130.9%.

What about the “T/C, extreme values” [4, 7] of the same compound?
Its value is 116.7-140%.

And the “T/C, mean ± s.e.m.” value [4, 7]?
The value was 128.4%.

What about the “T/C, median” value [4, 7] of the same compound?
Its value is 128.4%.

And the “T/C, extreme values” [4, 8]?
Its value is 90-108.3%.

And the “T/C, mean ± s.e.m.” value [4, 8]?
The value was 99.2%.

What about the “T/C, median” value [4, 8] of the same compound?
The value was 99.2%.

And the “T/C, extreme values” [4, 9]?
The value was 116.7-140%.

What about the “T/C, mean ± s.e.m.” value [4, 9] of the same compound?
The value was 128.4%.

And the “T/C, median” value [4, 9]?
Its value is 128.4%.

What about the “T/C, extreme values” [4, 10] of the same compound?
The value was 120-150%.

What about the “T/C, mean ± s.e.m.” value [4, 10] of the same compound?
The value was 134.2 ± 4.4%.

And the “T/C, median” value [4, 10]?
The value was 134.2%.

And the “T/C, extreme values” [4, 11]?
Its value is 85-100%.

What about the “T/C, mean ± s.e.m.” value [4, 11] of the same compound?
Its value is 91.7 ± 2.8%.

And the “T/C, median” value [4, 11]?
Its value is 90%.

What about the “increase in activity as a result of the compound of Example 1” value ([4]; Example 1 200 mg/kg + ADR 2 mg/kg, i.p.) of the same compound?
Its value is 30.6%.

And the “T/C, extreme values” [4, 12]?
Its value is 140-155.6%.

And the “T/C, mean ± s.e.m.” value [4, 12]?
The value was 148.9% and 148.9 ± 3.2%.

And the “T/C, median” value [4, 12]?
The value was 150%.

What about the “activity” value ([4]; Example 1 200 mg/kg + ADR 2 mg/kg, T/C ≥ 135% good activity) of the same compound?
The value was “good activity”.

And the “T/C, extreme values” [4, 13]?
The value was 80-88.9%.

What about the “T/C, mean ± s.e.m.” value [4, 13] of the same compound?
Its value is 83.5 ± 2.2%.

And the “T/C, median” value [4, 13]?
The value was 82.5%.

And the “toxicity” value ([4]; Example 1 alone, 200 mg/kg, i.p., T/C ≤ 85% toxic)?
The value was “only moderately toxic”.

And the “antitumour activity” value ([4]; Example 1 alone, 50 to 200 mg/kg, i.p.)?
Its value is “does not possess any antitumour activity”.

And the “activity” value ([4]; Example 1 at 50 and 100 mg/kg (Table V: with ADR), T/C ≥ 120% moderate activity)?
The value was “modest activity”.

What about the “Reversion Factor (RF)” value ([2]; compound 2.5 μM) of the same compound?
Its value is 171.

What about the “Reversion Factor (RF)” value ([2]; compound 5 μM) of the same compound?
Its value is 905.

And the “Reversion Factor (RF)” value ([2]; compound 10 μM)?
Its value is 2575.

What about the “Reversion Factor (RF)” value ([2]; compound 20 μM) of the same compound?
Its value is “TOX”.

What about the “Increase in fluorescence of ADR” value (line P 388/ADR 10; compound 2 μM) of the same compound?
The value was 53.1.

And the “Increase in fluorescence of ADR” value (line P 388/ADR 10; compound 5 μM)?
Its value is 74.1.

And the “Increase in fluorescence of ADR” value (line P 388/ADR 10; compound 10 μM)?
Its value is 85.49.

And the “Increase in fluorescence of ADR” value (line P 388/ADR 10; compound 20 μM)?
The value was 78.5.

And the “Reversion Factor (RF)” value ([3]; compound 2.5 μM)?
Its value is 110.8.

And the “Reversion Factor (RF)” value ([3]; compound 5 μM)?
The value was 244.4.

And the “Reversion Factor (RF)” value ([3]; compound 10 μM)?
Its value is 170.7.

With `COc1cccc2c1C(=O)c1c(O)c3c(c(O)c1C2=O)C[C@@](O)(C(=O)CO)C[C@@H]3O[C@H]1C[C@H](N)[C@H](O)[C@H](C)O1` [ADR, adriamycin, reference compound] as the compound, how does the “factor of resistance in relation to the sensitive line” value [5] read?
Its value is 260.

And the “T/C, extreme values” [4, 14]?
Its value is 116.7-120%.

What about the “T/C, mean ± s.e.m.” value [4, 14] of the same compound?
Its value is 118.3%.

What about the “T/C, median” value [4, 14] of the same compound?
The value was 118.3%.

What about the “T/C, extreme values” [4, 15] of the same compound?
The value was 105-130%.

And the “T/C, mean ± s.e.m.” value [4, 15]?
The value was 115.1 ± 3.9%.

What about the “T/C, median” value [4, 15] of the same compound?
Its value is 112.5%.

And the “antitumour activity” value ([4]; ADR alone, P388/ADR)?
Its value is “not exhibiting any antitumour activity”.

And the T/C ([4]; ADR alone, i.p.)?
The T/C was < 120%.
